Data set [1] deals with FaDu. The data set is described as follows: Upregulation of LC3A/B level in human FaDu cells measured after 48 hrs by Western blot analysis. The conditions noted are these: dose 1-5 µM. It is filed as functional, cell-based.
Data set [2] relates to Mitochondrial membrane. Nature of the data set: Induction of mitochondrial membrane potential loss in human FaDu cells assessed as decrease in green fluorescence incubated for 48 hrs by Rhodamine 123 staining based fluorescence microscopy analysis. In kind it is cell membranes. Conditions: dose 1-5 µM.
Data set [3] relates to FaDu. The data set is described as follows: Induction of morphological changes in human FaDu cells assessed as reduction in cell density at 2 to 5 uM incubated for 48 hrs by bright field microscope based analysis. In kind it is functional. The conditions noted are these: dose 2-5 µM.
The test system of data set [4] is FaDu. The data set is described as follows: Induction of apoptosis in human FaDu cells assessed as chromatin condensation at 1 to 5 uM by DAPI staining based analysis. It is filed as functional, cell-based. Conditions: dose 1-5 µM.
Data set [5] concerns FaDu. The data set is described as follows: Induction of morphological changes in human FaDu cells assessed as appearance of detached cells at 1 uM incubated for 48 hrs by bright field microscope based analysis. It is filed as functional, cell-based.
The subject of data set [6] is HEK293. Nature of the data set: Antiproliferative activity against HEK293 cells assessed as inhibition of cell growth at 10 to 25 uM measured after 48 to 72 hrs by MTT assay. Conditions: human, hek293, 25 µM; dose lower 10 µM, time lower 48 hrs, dose upper 25 µM, time upper 72 hrs. It is filed as toxicity, cell-based.
In data set [7] the test system is MCF7. The data set is described as follows: Induction of cell cycle arrest in human MCF7 cells assessed as accumulation of cells at G2/M phase measured after 24 hrs by PI staining based flow cytometry analysis (reference value: 14.2%). In kind it is functional.
Data set [8] has as its system FaDu. Nature of the data set: Antiproliferative activity against human FaDu cells assessed as inhibition of cell growth at 10 uM measured after 48 to 72 hrs by MTT assay relative to control. It is filed as functional. The conditions noted are these: time 48-72 hrs.
Data set [9] deals with MCF7. The data set is described as follows: Inhibition of oxidative stress in human MCF7 cells assessed as reduction in ROS production incubated for 24 hrs by DCFH-DA staining based flow cytometry analysis. It is filed as functional, cell-based.
Data set [10] has as its system FaDu. Nature of the data set: Induction of morphological changes in human FaDu cells assessed as appearance of detached cells at 2 to 5 uM incubated for 48 hrs by bright field microscope based analysis. It is filed as functional, cell-based. Conditions: dose 2-5 µM.
Data set [11] deals with FaDu. Nature of the data set: Inhibition of cell migration in human FaDu cells assessed as reduction in wound closure at 5 uM measured after 48 hrs by bright field microscopic analysis. It is filed as functional, cell-based.
Data set [12] relates to FaDu. Nature of the data set: Inhibition of colony formation in human FaDu cells assessed as reduction in colony formation incubated for 48 hrs crystal violet staining based analysis. In kind it is functional, cell-based. Conditions: dose 1-5 µM.
Data set [13] relates to FaDu. Nature of the data set: Induction of apoptosis in human FaDu cells assessed as nuclear changes at 1 to 5 uM by DAPI staining based analysis. It is filed as functional, cell-based. The conditions noted are these: dose 1-5 µM.
Data set [14] has as its system FaDu. Nature of the data set: Inhibition of cell migration in human FaDu cells assessed as reduction in wound closure at 1 to 2 uM measured after 48 hrs by bright field microscopic analysis. In kind it is functional, cell-based. The conditions noted are these: dose 1-2 µM.
For data set [15], the target named is T1, DNA topoisomerase 1 (Homo sapiens) (UniProt P11387).
T1 sequence (whole entry): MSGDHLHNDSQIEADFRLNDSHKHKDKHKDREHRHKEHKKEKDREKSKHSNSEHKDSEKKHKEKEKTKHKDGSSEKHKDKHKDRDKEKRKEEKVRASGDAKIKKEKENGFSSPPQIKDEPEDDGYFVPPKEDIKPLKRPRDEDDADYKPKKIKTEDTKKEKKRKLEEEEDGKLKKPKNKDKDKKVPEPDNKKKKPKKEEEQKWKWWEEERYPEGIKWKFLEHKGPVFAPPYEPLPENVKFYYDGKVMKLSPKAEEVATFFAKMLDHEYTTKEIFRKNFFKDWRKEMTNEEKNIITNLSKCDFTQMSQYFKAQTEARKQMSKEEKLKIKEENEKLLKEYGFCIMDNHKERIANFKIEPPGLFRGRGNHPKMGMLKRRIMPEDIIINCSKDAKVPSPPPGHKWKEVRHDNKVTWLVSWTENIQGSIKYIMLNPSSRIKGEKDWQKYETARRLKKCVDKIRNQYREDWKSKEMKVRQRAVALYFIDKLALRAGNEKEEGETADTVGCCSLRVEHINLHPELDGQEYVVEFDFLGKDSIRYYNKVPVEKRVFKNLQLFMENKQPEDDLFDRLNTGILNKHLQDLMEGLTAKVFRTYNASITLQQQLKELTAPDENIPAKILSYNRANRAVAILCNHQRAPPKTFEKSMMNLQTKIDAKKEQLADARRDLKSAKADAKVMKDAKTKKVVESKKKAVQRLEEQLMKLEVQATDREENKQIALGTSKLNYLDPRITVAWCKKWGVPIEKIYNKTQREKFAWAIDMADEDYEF
The data set is described as follows: Inhibition of human topoisomerase-I extracted from baculovirus expression system using SC-DNA as substrate incubated for 30 mins by EtBr staining based agarose gel electrophoresis method.

The subject of data set [16] is MDA-MB-231. The data set is described as follows: Antiproliferative activity against human MDA-MB-231 cells assessed as inhibition of cell growth at 10 uM measured after 48 to 72 hrs by MTT assay relative to control. The conditions noted are these: time 48-72 hrs. In kind it is functional.

Active and inactive are the calls of the source. No cut-off for these calls is given here.

For `Brc1ccc(Cc2nc(N3CCN(c4ccncc4)CC3)c3c4c(sc3n2)CCCC4)cc1`, the Activity entry in data set [1] is “Dose-dependent-effect”; in data set [2] it was “Dose-dependent-effect”; in [6] it was “Non-toxic”; in data set [7] it was 52.8%. The outcome in data set [3], in data set [4], in data set [5], in [10] and in data set [13] was Active. The results for the inhibition at 10 µM in [8] and in data set [16] were 83.5% and 6.27%, respectively. For the same molecule, the inhibition entry in [9], in data set [11] and in [14] was “Active” each time. The inhibition result in [12] was “Dose-dependent-effect”; in data set [15] it was “Active; Compound Showed Potent Inhibition Activity Than Camptothecin”.
